From US8580965B2, “Substituted sulfonamide compounds” (Gruenenthal GmbH, priority 2006, dated 2013) come the findings set out here.

The inhibition is the change of the read-out against control, counted positive when it falls.

Assay [1] has as its target T1, human B1R receptor (bradykinin 1 receptor) (Homo sapiens, UniProt P46663).
T1 construct: host or cells: CHO K1 cells (hB1R cells)
T1 sequence (P46663 1-353): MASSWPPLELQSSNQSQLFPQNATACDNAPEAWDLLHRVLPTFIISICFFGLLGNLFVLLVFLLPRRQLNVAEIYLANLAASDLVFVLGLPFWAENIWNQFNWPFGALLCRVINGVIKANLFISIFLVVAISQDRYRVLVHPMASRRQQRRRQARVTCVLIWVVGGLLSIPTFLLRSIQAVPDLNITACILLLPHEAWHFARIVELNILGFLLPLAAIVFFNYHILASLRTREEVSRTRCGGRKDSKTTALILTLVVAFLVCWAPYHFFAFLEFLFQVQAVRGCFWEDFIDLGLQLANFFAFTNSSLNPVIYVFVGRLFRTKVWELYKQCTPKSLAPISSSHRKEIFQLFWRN
Description: FLIPR Ca2+ assay (Fluo-4) on CHO K1 cells stably transfected with the human B1R gene; % activation and % inhibition at 10 μM. The assay is classed as cell-based. As to conditions: CHO K1 hB1R cells, Ca2+ inflow after 0.5 nM Lys-Des-Arg9-bradykinin; for inhibition at 10 µM: CHO-K1, test substance 10 μM, read-out: B1R antagonism, human [10 μM] % inhibition. In a few lines:
(§1)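 Fluo-4 Ca2+ flux on FLIPR in stable hB1R or rB1R CHO K1 lines, two additions. Agonism: 10 µM compound versus 0.5 nM Lys-Des-Arg9-BK (human) or 100 nM Des-Arg9-BK (rat); antagonism: same agonists applied 10 min later, suppression expressed against maximum achievable inhibition.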

Assay [2] addresses T2, B1R receptor of the rat (bradykinin 1 receptor) (Rattus norvegicus, UniProt P97583).
T2 construct: host or cells: CHO K1 cells (rB1R cells)
T2 sequence (P97583 1-337): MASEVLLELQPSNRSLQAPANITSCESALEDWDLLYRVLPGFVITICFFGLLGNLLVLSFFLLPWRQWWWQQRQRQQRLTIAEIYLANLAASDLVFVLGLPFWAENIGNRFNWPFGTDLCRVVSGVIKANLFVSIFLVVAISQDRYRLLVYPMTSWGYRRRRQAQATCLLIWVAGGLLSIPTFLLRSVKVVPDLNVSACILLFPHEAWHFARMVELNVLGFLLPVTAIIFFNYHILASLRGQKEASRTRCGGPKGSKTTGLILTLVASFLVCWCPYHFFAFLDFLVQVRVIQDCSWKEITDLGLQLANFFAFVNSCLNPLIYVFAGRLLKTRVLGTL
Briefly: FLIPR Ca2+ assay (Fluo-4) on CHO K1 cells stably transfected with the B1R gene of the rat; % activation and % inhibition at 10 μM. The assay is classed as cell-based. As to conditions: CHO K1 rB1R cells, Ca2+ inflow after 100 nM Des-Arg9-bradykinin; for inhibition at 10 µM: CHO-K1, test substance 10 μM, read-out: B1R antagonism, rat [10 μM] % inhibition. The method, boiled down:
as §1

Take `Cc1cc(S(=O)(=O)N(C)CCOCC(=O)N2CCC(O)(c3cccnc3)CC2)c(C)cc1Cl` [Example 149, 4-chloro-N-(2-(2-(4-hydroxy-4-(pyridin-3-yl)piperidin-1-yl)-2-oxoethoxy)ethyl)-N,2,5-trimethylphenylsulfonamide]: the inhibition at 10 µM in assay [1] is 99.1%; in assay [2], 100%.
In the same order, the values of `COc1cc(C)c(S(=O)(=O)N2CCCC(COCC(=O)N3CCC(O)(Cc4ccccc4)CC3)C2)c(C)c1` (stereo not drawn) [Example 252, 1-(4-benzyl-4-hydroxypiperidin-1-yl)-2-((1-(4-methoxy-2,6-dimethylphenylsulfonyl)piperidin-3-yl)methoxy)ethanone] are 32.7% and 100%.
In the same order, the values of `O=C(CCC1CCCCN1S(=O)(=O)c1ccc2ccccc2c1)N1CCC(O)(c2cccnc2)CC1` (stereo not drawn) [Example 117, 1-(4-hydroxy-4-(pyridin-3-yl)piperidin-1-yl)-3-(1-(naphthalen-2-ylsulfonyl)piperidin-2-yl)propan-1-one] are 84.8% and 24.2%.
In the same order, the values of `COc1cc(C)c(S(=O)(=O)N2Cc3ccccc3C[C@H]2COCC(=O)N2CCC(O)(c3cccnc3)CC2)c(C)c1` [Example 128, (S)-1-(4-hydroxy-4-(pyridin-3-yl)piperidin-1-yl)-2-((2-(4-methoxy-2,6-dimethylphenylsulfonyl)-1,2,3,4-tetrahydroisoquinolin-3-yl)methoxy)ethanone] are 101% and 98.8%.
For the molecule `O=C(COC1CCN(S(=O)(=O)c2c(Cl)cc(Cl)cc2Cl)C1)N1CCC(O)(c2ccccc2)CC1` (stereo not drawn) [Example 108, 1-(4-hydroxy-4-phenylpiperidin-1-yl)-2-(1-(2,4,6-trichlorophenylsulfonyl)pyrrolidin-3-yloxy)ethanone], the figures for the inhibition at 10 µM in assay [1] and in assay [2] were 54.8% and 54.5%, respectively.
In the case of `COc1cc(C)c(S(=O)(=O)N(C)CCOCC(=O)N2CCC(O)(c3ccc(Cl)cc3)CC2)c(C)c1` [Example 136, N-(2-(2-(4-(4-chlorophenyl)-4-hydroxypiperidin-1-yl)-2-oxoethoxy)ethyl)-4-methoxy-N,2,6-trimethylphenylsulfonamide], the inhibition at 10 µM in assay [1] amounted to 93.6%; in assay [2], 95.3%.
Take `O=C(COC1CCCN(S(=O)(=O)c2c(Cl)cc(Cl)cc2Cl)C1)N1CCC(O)(c2ccc(Cl)c(C(F)(F)F)c2)CC1` (stereo not drawn) [Example 250, 1-(4-(4-chloro-3-(trifluoromethyl)phenyl)-4-hydroxypiperidin-1-yl)-2-(1-(2,4,6-trichlorophenylsulfonyl)piperidin-3-yloxy)ethanone]: the inhibition at 10 µM stood at 18% in assay [1] and 76.3% in assay [2].
On to `O=C(COCC1CCCN(S(=O)(=O)c2c(Cl)cc(Cl)cc2Cl)C1)N1CCC(O)(c2ccc(Cl)cc2)CC1` (stereo not drawn) [Example 254, 1-(4-(4-chlorophenyl)-4-hydroxypiperidin-1-yl)-2-((1-(2,4,6-trichlorophenylsulfonyl)piperidin-3-yl)methoxy)ethanone], for which the inhibition at 10 µM in assay [1] was 62.5%; in assay [2], 36.8%.
The matching figures for `COc1cc(C)c(S(=O)(=O)N2CCCCC2COCC(=O)N2CCC(O)(c3ccccc3)CC2)c(C)c1` (stereo not drawn) [Example 244, 1-(4-hydroxy-4-phenylpiperidin-1-yl)-2-((1-(4-methoxy-2,6-dimethylphenylsulfonyl)piperidin-2-yl)methoxy)ethanone]: 105% and 99.3%.
In the same order, the values of `O=C(COCC1CCCCN1S(=O)(=O)c1cccc2ccccc12)N1CCC(O)(c2ccc(Cl)cc2)CC1` (stereo not drawn) [Example 63, 1-(4-(4-chlorophenyl)-4-hydroxypiperidin-1-yl)-2-((1-(naphthalen-1-ylsulfonyl)piperidin-2-yl)methoxy)ethanone] are 84.8% and 91.8%.
As to `Cc1cc(S(=O)(=O)N2CCCCC2CCC(=O)N2CCC(O)(c3cccnc3)CC2)c(C)cc1Cl` (stereo not drawn) [Example 122, 3-(1-(4-chloro-2,5-dimethylphenylsulfonyl)piperidin-2-yl)-1-(4-hydroxy-4-(pyridin-3-yl)piperidin-1-yl)propan-1-one], the “B1R antagonism, human [10 μM] % inhibition” value in assay [1] (test substance 10 μM) is listed as 98.39%. The “B1R antagonism, rat [10 μM] % inhibition” value in assay [2] (test substance 10 μM) turned out to be 97.87%.
As for `Cc1cc(C)c(S(=O)(=O)N2CCC(OCC(=O)N3CCC(O)(c4ccccn4)CC3)C2)c(C)c1` (stereo not drawn) [Example 30, 1-(4′-hydroxy-3′,4′,5′,6′-tetrahydro-2′H-[2,4′]bipyridinyl-1′-yl)-2-[1-(2,4,6-trimethyl-phenylsulfonyl)-pyrrolidin-3-yloxy]-ethanone], the inhibition at 10 µM in assay [1] worked out at 6.86%; in assay [2] it was 17.4%.
The matching figures for `O=C(COCc1sccc1N(Cc1ccccc1)S(=O)(=O)c1ccc(Cl)c(Cl)c1)N1CCC(O)(Cc2ccccc2)CC1` [Example 69, N-benzyl-N-{2-[2-(4-benzyl-4-hydroxy-piperidin-1-yl)-2-oxo-ethoxymethyl]-thiophen-3-yl}-3,4-dichloro-phenylsulfonamide]: 9.45% and 28.4%.
For `O=C(COC1CCCCC1N(Cc1ccccc1)S(=O)(=O)c1ccc(Cl)c(Cl)c1)N1CCC(O)(c2ccc(Cl)cc2)CC1` (stereo not drawn) [Example 83, N-benzyl-3,4-dichloro-N-(2-(2-(4-(4-chlorophenyl)-4-hydroxypiperidin-1-yl)-2-oxoethoxy)cyclohexyl)phenylsulfonamide], the inhibition at 10 µM in assay [1] is 11.3%; in assay [2] it was -12.6%.
The matching figures for `O=C(COC1CCN(S(=O)(=O)c2c(Cl)cc(Cl)cc2Cl)C1)N1CCC(O)(c2ccc(Cl)cc2)CC1` (stereo not drawn) [Example 107, 1-(4-(4-chlorophenyl)-4-hydroxypiperidin-1-yl)-2-(1-(2,4,6-trichlorophenylsulfonyl)pyrrolidin-3-yloxy)ethanone]: 75.5% and 71.9%.
In the same order, the values of `COc1ccc(S(=O)(=O)N2CCCCC2CCOCC(=O)N2CCC(O)(c3ccccn3)CC2)cc1` (stereo not drawn) [Example 44, 1-(4′-hydroxy-3′,4′,5′,6′-tetrahydro-2′H-[2,4′]bipyridinyl-1′-yl)-2-{2-[1-(4-methoxy-phenylsulfonyl)-piperidin-2-yl]-ethoxy}-ethanone] are -2.3% and 76.6%.
For the molecule `O=C(COCC1Cc2ccccc2CN1S(=O)(=O)c1ccc(F)cc1)N1CCC(O)(c2ccccn2)CC1` (stereo not drawn) [Example 72, 2-[2-(4-fluoro-phenylsulfonyl)-1,2,3,4-tetrahydro-isoquinolin-3-ylmethoxy]-1-(4′-hydroxy-3′,4′,5′,6′-tetrahydro-2′H-[2,4′]bipyridinyl-1′-yl)-ethanone], the inhibition at 10 µM in assay [1] worked out at 3.33%; in assay [2], 18.7%.
The matching figures for `O=C(COCC1CCCCN1S(=O)(=O)c1cccc(C(F)(F)F)c1)N1CCC(O)(Cc2ccccc2)CC1` (stereo not drawn) [Example 65, 1-(4-benzyl-4-hydroxy-piperidin-1-yl)-2-[1-(3-trifluoromethyl-phenylsulfonyl)-piperidin-2-ylmethoxy]-ethanone]: 21% and 25.8%.
